Measured values published in patent US10709705B2, “Aminopyrimidines as ALK inhibitors” (THE REGENTS OF THE UNIVERSITY OF MICHIGAN, priority 2016, dated 2020).

Key:
[1] = Pharmacokinetics in SD rats; assay type: in vivo; settings: 10 mg/kg, Table 8 (SD rats), PO 10 mg/kg
Procedure: Routine pharmacokinetics studies were performed for Cpd. No. 5 in SD rats and beagle dogs.

[2] = tested on: Human lymphoma cells, KARPAS 299 xenograft; assay: KARPAS 299 xenograft tumor growth in SCID mice; assay type: in vivo; settings: given orally, once daily for 3 weeks, FIG. 1
Procedure: Cpd. Nos. 5 and 6 were dissolved in a solution of 98% PEG200: 2% TPGS (Sigma).
Human lymphoma cells, KARPAS 299 were maintained at 37° C., 95% air, 5% carbon dioxide in RPMI 1640 medium supplemented with 10% Fetal Bovine Serum, 100 units/ml of penicillin and 100 units/ml of streptomycin (GIBCO™, Invitrogen Corp.) and passaged twice weekly.
Tumor cells for xenografts were washed twice in PBS, and re-suspended in an ice cold mixture of 1:1 PBS and Matrigel (BD Biosciences, Invitrogen Corp.) for a final Matrigel protein concentration of 5 mg/ml. Cells at 5×10^6 cells in 0.1 ml were injected subcutaneously (s.c.) into the flank region of each mouse. All tumors were inoculated into SCID mice (strain:236 C.B-17 SCID, Charles River).
The size of tumors growing in the mice was measured in two dimensions using calipers. Tumor volume (mm^3)=(AxB^2)/2 where A and B are the tumor length and width (in mm), respectively. During treatment, tumor volume and body weight were measured three times a week. After the treatment was stopped, tumor volume and body weight was measured at least once a week.
Tumors were not allowed to exceed 10% of the animal's total body weight. If an animal had two or more tumors the total weight of all tumors were not allowed to exceed 10% of the animal's total body weight. […]

[3] = molecular target: T1, wild-type human ALK protein (cytoplasmic domain, amino acid 1058-1620) (Homo sapiens, UniProt Q9UM73); assay: Wild-type ALK kinase inhibition, Lance TR-FRET assay; assay type: biochemical; settings: Table 4; target not given; Cpd. No. 5 value equals WT ALK IC50 of Table 5; read-out: Inhibitory activity
T1 construct: The cytoplasmic domain (amino acid 1058-1620) of wild-type human ALK protein; purchased Carna Biosciences, Inc (Japan)
Procedure: The cytoplasmic domain (amino acid 1058-1620) of wild-type human ALK protein expressed as N-terminal GST-fusion protein was purchased from Carna Biosciences, Inc (Japan). Mutated ALK proteins were expressed in SF9 insect cells with N-terminal tags cleaved after purification. Kinase activities of all enzymes were assessed using a Lance® TR-FRET assay kit from Perkin Elmer Life Sciences (Waltham, Mass.). 2.5 μL of compound solution and 5 μL of protein solution were added into a black low volume 384 well microtiter plate which was incubated for 30 minutes with gentle shaking at room temperature, followed by adding 2.5 μL of fluorescently labeled peptide substrate (ULight™-IRS-1 (Tyr983) Peptide) and ATP mixture solution. The kinase reaction was performed in 50 mM HEPES (pH 7.5) with 1 mM EGTA, 1 mM MgCl2, and 2 mM DTT, 0.01% Tween-20 added right before the assay. Final concentrations of ATP, substrates, and DMSO were 100 μM, 20 nM, and 0.5%, respectively. […] Final ALK concentrations were 1 nM, 1 nM, InM, 128 nM, 2 nM, and 4 nM for wild-type, F1174L, L1196M, S1206Y, G1269A, and G1202R, respectively. The reaction was allowed to perform for 90 minutes in dark with gentle shaking at room temperature after which 10 μL of 20 mM EDTA and 2 nM Eu-W1024 anti-phosphotyrosine antibody (PT66) mixture solution in the detection buffer from the manufacturer was added to terminate the reaction and detect the phosphorylation of the peptide substrate. The final mixture was incubated in the dark for 1 hour before the plate was read on a Tecan Infinite M-1000 multi-mode plate reader (Tecan, Durham N.C.) with an excitation wavelength of 320 nm. Emission intensities were measured at both 620 and 665 nm with the intensity ratio between 665 and 620 nm corresponding to the peptide substrate phosphorylation. IC50 values of inhibitors were obtained by fitting the ratio of 665/620 nm vs inhibitor concentrations in a sigmoidal dose-response curve (variable slope) with a non-linear regression.

[4] = tested on: Kappas-299 cells (NPM-ALK); assay: Cell growth inhibition assay (WST-8), Kappas-299; assay type: cell-based; settings: read-out: Kappas-299 (nM) (NPM-ALK), 50% of cell growth inhibition (IC50), WST-8, versus DMSO control
Procedure: (§1) H3122 and Kappas-299 cells were purchased from American Type Culture Collection (Manassas, Va., USA) and were used within 2 months after initiating from original stocks. All cell lines were cultured as recommended. For cell growth inhibition assay, cells were treated with different concentrations of the tested compounds, diluted from stock to culture media containing a 0.2% DMSO as the final concentration. Cell viability was determined using the WST-8 cell proliferation assay kit (Dojindo Molecular Technologies) according to manufacturer's instructions. Three independent experiments in triplicates were performed.

H3122 cells (EML4-ALK) = assay: Cell growth inhibition assay (WST-8), H3122; assay type: cell-based; settings: Homo sapiens, NCI-H3122, read-out: H3122 (nM) (EML4-ALK), 50% of cell growth inhibition (IC50), WST-8, versus DMSO control
Procedure: as §1

T1 sequence (Q9UM73 1058-1620): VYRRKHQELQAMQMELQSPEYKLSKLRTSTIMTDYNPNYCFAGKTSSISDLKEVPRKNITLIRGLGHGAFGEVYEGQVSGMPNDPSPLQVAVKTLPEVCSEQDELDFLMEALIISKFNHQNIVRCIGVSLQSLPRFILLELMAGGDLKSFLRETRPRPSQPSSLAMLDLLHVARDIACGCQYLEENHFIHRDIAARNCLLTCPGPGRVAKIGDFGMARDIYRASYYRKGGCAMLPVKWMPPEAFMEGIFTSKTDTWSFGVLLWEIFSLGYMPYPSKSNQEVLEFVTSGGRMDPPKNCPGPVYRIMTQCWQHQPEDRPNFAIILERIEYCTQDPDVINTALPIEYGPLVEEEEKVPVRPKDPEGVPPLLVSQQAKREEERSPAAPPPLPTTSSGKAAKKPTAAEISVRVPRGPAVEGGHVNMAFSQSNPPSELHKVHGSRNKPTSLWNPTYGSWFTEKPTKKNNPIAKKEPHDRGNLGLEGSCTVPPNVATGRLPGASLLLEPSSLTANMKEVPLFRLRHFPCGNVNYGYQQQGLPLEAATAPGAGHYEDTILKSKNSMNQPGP

IC50 [3] [nM]	IC50 (H3122 cells (EML4-ALK)) [nM]	SMILES	IC50 [4] [nM]	other results
		Cc1cc(Nc2ncc(Cl)c(Nc3ccccc3S(=O)(=O)C(C)C)n2)c(OC(C)C)cc1C1=CCN(C2CCOCC2)CC1 [Cpd. No. 5 (mesylate), 5-chloro-N2-(2-isopropoxy-5-methyl-4-(1-(tetrahydro-2H-pyran-4-yl)-1,2,3,6-tetrahydropyridin-4-yl)phenyl)-N4-(2-(isopropylsulfonyl)phenyl)pyrimidine-2,4-diamine]		half-life ([1]; Sprague-Dawley, rat, in vivo, po, read-out: t1/2 (h) PO (converted)): 3.84 h; AUC0-t (ng · h/mL) PO [1]: 958 ng·h/mL; AUC0-∞ (ng · h/mL) PO [1]: 971 ng·h/mL; Cmax(ng/mL) PO [1]: 127 ng/mL; Tmax (h) PO [1]: 1.0 h
		Cc1cc(Nc2ncc(Cl)c(Nc3ccccc3S(=O)(=O)C(C)C)n2)c(OC(C)C)cc1C1=CCN(C2COC2)CC1 [compound 6, 5-chloro-N2-(2-isopropoxy-5-methyl-4-(1-(oxetan-3-yl)-1,2,3,6-tetrahydropyridin-4-yl)phenyl)-N4-(2-(isopropylsulfonyl)phenyl)pyrimidine-2,4-diamine]		tumor growth in the KARPAS 299 xenograph model [2]: inhibit tumor growth
1.1	54.9	Cc1cc(Nc2ncc(Cl)c(Nc3ccccc3S(=O)(=O)C(C)C)n2)c(OC(C)C)cc1C1=C[C@H](C)N[C@H](C)C1 (racemic) [compound 9, 5-chloro-N2-(4-((cis)-2,6-dimethyl-1,2,3,6-tetrahydropyridin-4-yl)-2-isopropoxy-5-methylphenyl)-N4-(2-(isopropylsulfonyl)phenyl)pyrimidine-2,4-diamine]	35.9	
6.6	196	Cc1cc(Nc2ncc(Cl)c(Nc3ccccc3S(=O)(=O)C(C)C)n2)c(OC(C)C)cc1C1=C[C@H](C2CC2)N[C@H](C2CC2)C1 (racemic) [compound 15, 5-chloro-N2-(4-((cis)-2,6-dicyclopropyl-1,2,3,6-tetrahydropyridin-4-yl)-2-isopropoxy-5-methylphenyl)-N4-(2-(isopropylsulfonyl)phenyl)pyrimidine-2,4-diamine]	121	
1.8	92	Cc1cc(Nc2ncc(Cl)c(Nc3ccccc3S(=O)(=O)C(C)C)n2)c(OC(C)C)cc1C1=CC(C)(C)N(C)C(C)(C)C1 [compound 1, 5-chloro-N2-(2-isopropoxy-5-methyl-4-(1,2,2,6,6-pentamethyl-1,2,3,6-tetrahydropyridin-4-yl)phenyl)-N4-(2-(isopropylsulfonyl)phenyl)pyrimidine-2,4-diamine]	30	
6.3	160	Cc1cc(Nc2ncc(Cl)c(Nc3ccccc3S(=O)(=O)C(C)C)n2)c(OC(C)C)cc1C1=C[C@H](C2CC2)N(C)[C@H](C2CC2)C1 (racemic) [compound 16, 5-chloro-N2-(4-((cis)-2,6-dicyclopropyl-1-methyl-1,2,3,6-tetrahydropyridin-4-yl)-2-isopropoxy-5-methylphenyl)-N4-(2-(isopropylsulfonyl)phenyl)pyrimidine-2,4-diamine]	97.7	
0.98	54.9	Cc1cc(Nc2ncc(Cl)c(Nc3ccccc3S(=O)(=O)C(C)C)n2)c(OC(C)C)cc1C1=C[C@H](C)N(C)[C@H](C)C1 (racemic) [compound 10, 5-chloro-N2-(2-isopropoxy-5-methyl-4-((cis)-1,2,6-trimethyl-1,2,3,6-tetrahydropyridin-4-yl)phenyl)-N4-(2-(isopropylsulfonyl)phenyl)pyrimidine-2,4-diamine]	37.5	
4.4	132	Cc1cc(Nc2ncc(Cl)c(Nc3ccccc3S(=O)(=O)C(C)C)n2)c(OC(C)C)cc1C1=CC(C)(C)NC(C)(C)C1 [compound 2, 5-chloro-N2-(2-isopropoxy-5-methyl-4-(2,2,6,6-tetramethyl-1,2,3,6-tetrahydropyridin-4-yl)phenyl)-N4-(2-(isopropylsulfonyl)phenyl)pyrimidine-2,4-diamine]	39	
